Laboratory results published in US9932381B2, “Exendin-4 derivatives as selective glucagon receptor agonists” (priority 2014, dated 2018).
pEC50: −log10 of the molar value. Non-standard residues stand in square brackets, D forms with d. Residues, ends and D or L forms follow the SMILES beside them. Ala(4-thiazolyl) = N[C@@H](Cc1cscn1)C(=O)O; 1Nal = N[C@@H](Cc1cccc2ccccc12)C(=O)O; Phe(2-F) = N[C@@H](Cc1ccccc1F)C(=O)O; Nle = CCCC[C@H](N)C(=O)O

molecular target: T1, human glucagon receptor (hGLUC R) (Homo sapiens, UniProt P47871); experiment: cAMP response (HTRF) of HEK-293 cells stably expressing human glucagon receptor; format: cell-based; details: Table 4; read-out: EC50 hGLUC R
T1 construct: expressed in transfected cells; host or cells: HEK-293
T1 sequence (P47871 26-477): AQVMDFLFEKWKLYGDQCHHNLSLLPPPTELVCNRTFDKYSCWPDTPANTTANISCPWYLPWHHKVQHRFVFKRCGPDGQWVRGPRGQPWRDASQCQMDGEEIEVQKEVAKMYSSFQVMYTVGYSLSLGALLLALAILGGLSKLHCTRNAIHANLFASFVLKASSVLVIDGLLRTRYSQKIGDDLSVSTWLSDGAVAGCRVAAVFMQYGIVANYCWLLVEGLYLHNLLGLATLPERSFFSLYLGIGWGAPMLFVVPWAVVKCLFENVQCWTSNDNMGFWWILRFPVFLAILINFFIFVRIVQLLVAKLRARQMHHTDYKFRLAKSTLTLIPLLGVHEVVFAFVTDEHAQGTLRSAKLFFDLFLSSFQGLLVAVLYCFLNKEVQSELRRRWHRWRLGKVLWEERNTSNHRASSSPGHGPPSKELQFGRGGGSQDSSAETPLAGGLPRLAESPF
Procedure: cAMP content of cells was determined using a kit from Cisbio Corp. (cat. no. 62AM4PEC) based on HTRF (Homogenous Time Resolved Fluorescence). For preparation, cells were split into T175 culture flasks and grown overnight to near confluency in medium (DMEM/10% FBS). Medium was then removed and cells washed with PBS lacking calcium and magnesium, followed by proteinase treatment with accutase (Sigma-Aldrich cat. no. A6964). Detached cells were washed and resuspended in assay buffer (1×HBSS; 20 mM HEPES, 0.1% BSA, 2 mM IBMX) and cellular density determined. They were then diluted to 400000 cells/ml and 25 μl-aliquots dispensed into the wells of 96-well plates. For measurement, 25 μl of test compound in assay buffer was added to the wells, followed by incubation for 30 minutes at room temperature.

| pEC50 | Compound |
| --- | --- |
| 11.51 | CCCC[C@H](NC(=O)[C@H](CCC(N)=O)NC(=O)[C@H](CCCCN)NC(=O)[C@H](CO)NC(=O)[C@H](Cc1ccccc1)NC(=O)[C@H](CC(=O)O)NC(=O)[C@H](CO)NC(=O)[C@@H](NC(=O)[C@H](Cc1ccccc1)NC(=O)[C@@H](NC(=O)CNC(=O)[C@H](CCC(N)=O)NC(=O)[C@H](CO)NC(=O)[C@@H](N)Cc1cscn1)[C@@H](C)O)[C@@H](C)O)C(=O)N[C@@H](CCC(=O)O)C(=O)N[C@@H](CO)C(=O)N[C@@H](CCCNC(=N)N)C(=O)N[C@@H](CCCNC(=N)N)C(=O)N[C@@H](C)C(=O)N[C@@H](CCC(N)=O)C(=O)N[C@@H](CC(=O)O)C(=O)N[C@@H](Cc1ccccc1)C(=O)N[C@H](C(=O)N[C@@H](CCC(=O)O)C(=O)N[C@@H](Cc1c[nH]c2ccccc12)C(=O)N[C@@H](CC(C)C)C(=O)N[C@@H](CC(C)C)C(=O)N[C@@H](C)C(=O)N[C@H](C(=O)NCC(=O)N1CCC[C@H]1C(=O)N[C@@H](CCC(=O)O)C(=O)N[C@@H](CO)C(=O)NCC(=O)N[C@@H](C)C(=O)N1CCC[C@H]1C(=O)N1CCC[C@H]1C(=O)N1CCC[C@H]1C(=O)N[C@@H](CO)C(=O)O)[C@@H](C)O)[C@@H](C)CC [SEQ ID NO 13, Tza-S-Q-G-T-F-T-S-D-F-S-K-Q-Nle-ESRRAQDFIEWLLATGPESGAPPPS-OH] (H-[Ala(4-thiazolyl)]SQGTFTSDFSKQ[Nle]ESRRAQDFIEWLLATGPESGAPPPS-OH; N-terminus assumed) |
| 12.00 | CC[C@H](C)[C@H](NC(=O)[C@H](Cc1ccccc1)NC(=O)[C@H](CC(=O)O)NC(=O)[C@H](CCC(N)=O)NC(=O)[C@H](C)NC(=O)[C@H](CCCNC(=N)N)NC(=O)[C@H](CCCNC(=N)N)NC(=O)[C@H](CO)NC(=O)[C@H](CCC(=O)O)NC(=O)[C@H](CC(C)C)NC(=O)[C@H](CCC(N)=O)NC(=O)[C@H](CCCCN)NC(=O)[C@H](CO)NC(=O)[C@H](Cc1cccc2ccccc12)NC(=O)[C@H](CC(=O)O)NC(=O)[C@H](CO)NC(=O)[C@@H](NC(=O)[C@H](Cc1ccccc1)NC(=O)[C@@H](NC(=O)CNC(=O)[C@H](CCC(N)=O)NC(=O)[C@H](CO)NC(=O)[C@@H](N)Cc1cscn1)[C@@H](C)O)[C@@H](C)O)C(=O)N[C@@H](CCC(=O)O)C(=O)N[C@@H](Cc1c[nH]c2ccccc12)C(=O)N[C@@H](CC(C)C)C(=O)N[C@@H](CC(C)C)C(=O)N[C@@H](C)C(=O)N[C@H](C(=O)NCC(=O)N1CCC[C@H]1C(=O)N[C@@H](CCC(=O)O)C(=O)N[C@@H](CO)C(=O)NCC(=O)N[C@@H](C)C(=O)N1CCC[C@H]1C(=O)N1CCC[C@H]1C(=O)N1CCC[C@H]1C(=O)N[C@@H](CO)C(=O)O)[C@@H](C)O [SEQ ID NO 22, Tza-S-Q-G-T-F-T-S-D-1Nal-SKQLESRRAQDFIEWLLATGPESGAPPPS-OH] (H-[Ala(4-thiazolyl)]SQGTFTSD[1Nal]SKQLESRRAQDFIEWLLATGPESGAPPPS-OH; N-terminus assumed) |
| 12.00 | CCCC[C@H](NC(=O)[C@H](CCC(N)=O)NC(=O)[C@H](CCCCN)NC(=O)[C@H](CO)NC(=O)[C@H](Cc1ccc(O)cc1)NC(=O)[C@H](CC(=O)O)NC(=O)[C@H](CO)NC(=O)[C@@H](NC(=O)[C@H](Cc1ccccc1)NC(=O)[C@@H](NC(=O)CNC(=O)[C@H](CCC(N)=O)NC(=O)[C@H](CO)NC(=O)[C@@H](N)Cc1cscn1)[C@@H](C)O)[C@@H](C)O)C(=O)N[C@@H](CCC(=O)O)C(=O)N[C@@H](CO)C(=O)N[C@@H](CCCNC(=N)N)C(=O)N[C@@H](CCCNC(=N)N)C(=O)N[C@@H](C)C(=O)N[C@@H](CCC(N)=O)C(=O)N[C@@H](CCC(=O)O)C(=O)N[C@@H](Cc1ccccc1)C(=O)N[C@H](C(=O)N[C@@H](CCC(=O)O)C(=O)N[C@@H](Cc1c[nH]c2ccccc12)C(=O)N[C@@H](CC(C)C)C(=O)N[C@@H](CC(C)C)C(=O)N[C@@H](C)C(=O)N[C@H](C(=O)NCC(=O)N1CCC[C@H]1C(=O)N[C@@H](CCC(=O)O)C(=O)N[C@@H](CO)C(=O)NCC(=O)N[C@@H](C)C(=O)N1CCC[C@H]1C(=O)N1CCC[C@H]1C(=O)N1CCC[C@H]1C(=O)N[C@@H](CO)C(=O)O)[C@@H](C)O)[C@@H](C)CC [SEQ ID NO 17, Tza-S-Q-G-T-F-T-S-D-Y-S-K-Q-Nle-ESRRAQEFIEWLLATGPESGAPPPS-OH] |
| 11.51 | CCCC[C@H](NC(=O)[C@H](CCC(N)=O)NC(=O)[C@H](CCCCN)NC(=O)[C@H](CO)NC(=O)[C@H](Cc1ccccc1F)NC(=O)[C@H](CC(=O)O)NC(=O)[C@H](CO)NC(=O)[C@@H](NC(=O)[C@H](Cc1ccccc1)NC(=O)[C@@H](NC(=O)CNC(=O)[C@H](CCC(N)=O)NC(=O)[C@H](CO)NC(=O)[C@@H](N)Cc1cscn1)[C@@H](C)O)[C@@H](C)O)C(=O)N[C@@H](CCC(=O)O)C(=O)N[C@@H](CO)C(=O)N[C@@H](CCCNC(=N)N)C(=O)N[C@@H](CCCNC(=N)N)C(=O)N[C@@H](C)C(=O)N[C@@H](CCC(N)=O)C(=O)N[C@@H](CC(=O)O)C(=O)N[C@@H](Cc1ccccc1)C(=O)N[C@H](C(=O)N[C@@H](CCC(=O)O)C(=O)N[C@@H](Cc1c[nH]c2ccccc12)C(=O)N[C@@H](CC(C)C)C(=O)N[C@@H](CC(C)C)C(=O)N[C@@H](C)C(=O)N[C@H](C(=O)NCC(=O)N1CCC[C@H]1C(=O)N[C@@H](CCC(=O)O)C(=O)N[C@@H](CO)C(=O)NCC(=O)N[C@@H](C)C(=O)N1CCC[C@H]1C(=O)N1CCC[C@H]1C(=O)N1CCC[C@H]1C(=O)N[C@@H](CO)C(=O)O)[C@@H](C)O)[C@@H](C)CC [SEQ ID NO 18, Tza-S-Q-G-T-F-T-S-D-2FPhe-S-K-Q-Nle-ESRRAQDFIEWLLATGPESGAPPPS-OH] (H-[Ala(4-thiazolyl)]SQGTFTSD[Phe(2-F)]SKQ[Nle]ESRRAQDFIEWLLATGPESGAPPPS-OH) |

same assay, conditions: Table 5, Tza vs. His in position 1; read-out: EC50 hGlucagon-R

| pEC50 | Compound |
| --- | --- |
| 11.85 | CCCC[C@H](NC(=O)[C@H](CCC(N)=O)NC(=O)[C@H](CCCCN)NC(=O)[C@H](CO)NC(=O)[C@H](CC(C)C)NC(=O)[C@H](CC(=O)O)NC(=O)[C@H](CO)NC(=O)[C@@H](NC(=O)[C@H](Cc1ccccc1)NC(=O)[C@@H](NC(=O)CNC(=O)[C@H](CCC(N)=O)NC(=O)[C@H](CO)NC(=O)[C@@H](N)Cc1c[nH]cn1)[C@@H](C)O)[C@@H](C)O)C(=O)N[C@@H](CCC(=O)O)C(=O)N[C@@H](CO)C(=O)N[C@@H](CCCNC(=N)N)C(=O)N[C@@H](CCCNC(=N)N)C(=O)N[C@@H](C)C(=O)N[C@@H](CCC(N)=O)C(=O)N[C@@H](CCC(=O)O)C(=O)N[C@@H](Cc1ccccc1)C(=O)N[C@H](C(=O)N[C@@H](CCC(=O)O)C(=O)N[C@@H](Cc1c[nH]c2ccccc12)C(=O)N[C@@H](CC(C)C)C(=O)N[C@@H](CC(C)C)C(=O)N[C@@H](C)C(=O)N[C@H](C(=O)NCC(=O)N1CCC[C@H]1C(=O)N[C@@H](CCC(=O)O)C(=O)N[C@@H](CO)C(=O)NCC(=O)N[C@@H](C)C(=O)N1CCC[C@H]1C(=O)N1CCC[C@H]1C(=O)N1CCC[C@H]1C(=O)N[C@@H](CO)C(=O)O)[C@@H](C)O)[C@@H](C)CC [SEQ ID NO 36, H-S-Q-G-T-F-T-S-D-L-S-K-Q-Nle-ESRRAQEFIEWLLATGPESGAPPPS-OH, reference compound] (H-HSQGTFTSDLSKQ[Nle]ESRRAQEFIEWLLATGPESGAPPPS-OH) |
| 11.85 | H-HSQGTFTSDLSKQLESRRAQEFIEWLLATGPESGAPPPS-OH [SEQ ID NO 34, HSQGTFTSDLSKQLESRRAQEFIEWLLATGPESGAPPPS-OH, reference compound] |
| 12.00 | CC[C@H](C)[C@H](NC(=O)[C@H](Cc1ccccc1)NC(=O)[C@H](CCC(=O)O)NC(=O)[C@H](CCC(N)=O)NC(=O)[C@H](C)NC(=O)[C@H](CCCNC(=N)N)NC(=O)[C@H](CCCNC(=N)N)NC(=O)[C@H](CO)NC(=O)[C@H](CCC(=O)O)NC(=O)[C@H](CC(C)C)NC(=O)[C@H](CCC(N)=O)NC(=O)[C@H](CCCCN)NC(=O)[C@H](CO)NC(=O)[C@H](Cc1ccc(O)cc1)NC(=O)[C@H](CC(=O)O)NC(=O)[C@H](CO)NC(=O)[C@@H](NC(=O)[C@H](Cc1ccccc1)NC(=O)[C@@H](NC(=O)CNC(=O)[C@H](CCC(N)=O)NC(=O)[C@H](CO)NC(=O)[C@@H](N)Cc1c[nH]cn1)[C@@H](C)O)[C@@H](C)O)C(=O)N[C@@H](CCC(=O)O)C(=O)N[C@@H](Cc1c[nH]c2ccccc12)C(=O)N[C@@H](CC(C)C)C(=O)N[C@@H](CC(C)C)C(=O)N[C@@H](C)C(=O)NCC(=O)NCC(=O)N1CCC[C@H]1C(=O)N[C@@H](CCC(=O)O)C(=O)N[C@@H](CO)C(=O)NCC(=O)N[C@@H](C)C(=O)N1CCC[C@H]1C(=O)N1CCC[C@H]1C(=O)N1CCC[C@H]1C(=O)N[C@@H](CO)C(=O)O [SEQ ID NO 28, HSQGTFTSDYSKQLESRRAQEFIEWLLAGGPESGAPPPS-OH, reference compound] |
